# Data: patent publication US20100256104A1, “NOVEL AMIDE COMPOUNDS” (ASTRAZENECA R&D, priority 2009, published 2010)
# pIC50: −log10 of the molar value.
# Target: T1, recombinant human GR (Homo sapiens, UniProt P04150)
# T1 construct: purchased Panvera/Invitrogen P2812 (kit P2893)
# T1 sequence (P04150 1-777): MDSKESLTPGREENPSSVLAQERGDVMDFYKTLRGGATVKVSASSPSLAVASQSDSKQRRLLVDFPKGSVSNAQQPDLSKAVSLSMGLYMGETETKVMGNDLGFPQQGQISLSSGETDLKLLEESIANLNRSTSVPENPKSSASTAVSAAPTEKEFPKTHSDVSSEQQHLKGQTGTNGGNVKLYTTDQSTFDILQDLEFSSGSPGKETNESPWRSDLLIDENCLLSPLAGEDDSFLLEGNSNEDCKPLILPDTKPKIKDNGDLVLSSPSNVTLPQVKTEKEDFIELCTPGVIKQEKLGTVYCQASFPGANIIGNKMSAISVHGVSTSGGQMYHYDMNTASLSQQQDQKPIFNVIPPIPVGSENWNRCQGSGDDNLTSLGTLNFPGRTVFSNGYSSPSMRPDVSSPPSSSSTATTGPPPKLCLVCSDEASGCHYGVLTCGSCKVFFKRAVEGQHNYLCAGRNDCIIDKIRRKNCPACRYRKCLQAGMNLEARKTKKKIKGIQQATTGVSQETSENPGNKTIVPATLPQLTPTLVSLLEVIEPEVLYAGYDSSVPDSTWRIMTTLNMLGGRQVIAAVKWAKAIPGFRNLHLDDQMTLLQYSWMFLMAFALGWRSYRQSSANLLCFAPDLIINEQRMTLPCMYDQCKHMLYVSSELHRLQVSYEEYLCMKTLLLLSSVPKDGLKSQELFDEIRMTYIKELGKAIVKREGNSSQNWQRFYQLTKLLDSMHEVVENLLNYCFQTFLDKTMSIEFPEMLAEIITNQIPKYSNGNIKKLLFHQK
# Experiment: Human Glucocorticoid Receptor (GR) Assay, fluorescence polarization competition with GS Red tracer
# Conditions: 2 hours at room temperature, 100% control 10 μM Dexamethasone, XLfit model 205, read-out: Inhibition of GR binding, IC50
# Procedure: Human Glucocorticoid Receptor (GR) Assay The assay is based on a commercial kit from Panvera/Invitrogen (Part number P2893). The assay technology is fluorescence polarization. The kit utilises recombinant human GR (Panvera, Part number P2812), a Fluoromone™ labelled tracer (GS Red, Panvera, Part number P2894) and a Stabilizing Peptide 10X (Panvera, Part number P2815). The GR and Stabilizing Peptide reagents are stored at −70° C. while the GS Red is stored at −20° C. Also included in the kit are 1M DTT (Panvera, Part number P2325, stored at −20° C.) and GR Screening buffer 10X (Panvera, Part number P2814, stored at −70° C. initially but once thawed stored at room temperature). Avoid repeated freeze/thaws for all reagents. The GR Screening buffer 10X comprises 100 mM potassium phosphate, 200 mM sodium molybdate, 1 mM EDTA and 20% DMSO. Test compounds (1 μL) and controls (1 μL) in 100% DMSO were added to black polystyrene 384-well plates (Greiner low volume black flat-bottom, part number 784076). 0% control was 100% DMSO and 100% control was 10 μM Dexamethasone. Background solution (8 μL; assay buffer 10X, Stabilizing Peptide, DTT and ice cold MQ water) was added to the background wells. GS Red solution (7 μL; assay buffer 10X, Stabilizing Peptide, DTT, GS Red and ice cold water) was added to all wells except background wells. GR solution (7 μL; assay buffer 10X, Stabilizing Peptide, DTT, GR and ice cold water) was added to all wells. The plate was sealed and incubated in a dark at room temperature for 2 hours. The plate was read in an Analyst plate reader (LJL Biosystems/Molecular Devices Corporation) or other similar plate reader capable of recording fluorescence polarization (excitation wavelength 530 nm, emission wavelength 590 nm and a dichroic mirror at 561 nm).
row,Structure (SMILES),pIC50
1,"C[C@]12Cc3cnn(-c4cccc(C(=O)N5CCC[C@@H]5C(N)=O)c4)c3C=C1CC[C@H]1[C@@H]3CC[C@](OC(=O)C4CC4)(C(=O)SCF)[C@@]3(C)C[C@H](O)[C@@]12F [Example 55, (1R,3aS,3bS,10aS, 10bR,11S,12aS)-7-(3-{[(2R)-2-carbamoyl-pyrrolidin-1-yl]carbonyl}phenyl)-10b-fluoro-1-{[(fluoromethyl)sulfanyl]carbonyl}-11-hydroxy-10a,12a-dimethyl-1,2,3,3a,3b,4,5,7,10, 10a,10b,11,12,12a-tetradecahydrocyclo-penta[5,6]naphtho [1,2-f]indazol-1-yl cyclopropanecarboxylate]",8.46
2,"CCC(=O)O[C@]1(C(=O)SCF)CC[C@H]2[C@@H]3CCC4=Cc5c(cnn5-c5cccc(C(=O)NC6CCCC6)c5)C[C@]4(C)[C@H]3[C@@H](O)C[C@@]21C [Example 62, (1R,3aS,3bS,10aR, 10bS,11S,12aS)-7-[3-(cyclopentylcarbamoyl)phenyl]-1-{[(fluoromethyl)sulfanyl]carbonyl}-11-hydroxy-10a,12a-dimethyl-1,2,3,3a,3b,4,5,7,10, 10a,10b,11,12,12a-tetradecahydrocyclo-penta[5,6]naphtho [1,2-f]indazol-1-yl propanoate]",8.44
3,"CCC(=O)O[C@]1(C(=O)SCF)[C@H](C)C[C@H]2[C@@H]3CCC4=Cc5c(cnn5-c5cccc(C(=O)NCc6cccnc6)c5)C[C@]4(C)[C@@]3(F)[C@@H](O)C[C@@]21C [Example 43, (1R,2R,3aS,3bS, 10aS,10bR,11S,12aS)-10b-fluoro-1-{[(fluoromethyl)sulfanyl]carbonyl}-11-hydroxy-2,10a,12a-trimethyl-7-{3-[(pyridin-3-ylmethyl)carbamoyl]phenyl}-1,2,3,3a,3b,4,5,7,10, 10a,10b,11,12,12a-tetradecahydrocyclo-penta[5,6]naphtho [1,2-f]indazol-1-yl propanoate]",8.72
4,"C[C@]12Cc3cnn(-c4cccc(C(=O)NCc5cccnc5)c4)c3C=C1CC[C@@H]1[C@@H]2[C@@H](O)C[C@@]2(C)[C@H]1CC[C@]2(OC(=O)c1cocn1)C(=O)SCF [Example 39, (1R,3aS,3bS,10aR, 10bS,11S,12aS)-1-{[(fluoromethyl)sulfanyl]carbonyl}-11-hydroxy-10a,12a-dimethyl-7-{3-[(pyridin-3-ylmethyl)carbamoyl]-phenyl}-1,2,3,3a,3b, 4,5,7,10,10a,- 10b,11,12,12a-tetradecahydro-cyclopenta[5,6]naphtho [1,2-f]indazol-1-yl 1,3-oxazole-4-carboxylate]",8.62
5,"COCC(=O)O[C@]1(C(=O)SCF)[C@H](C)C[C@H]2[C@@H]3CCC4=Cc5c(cnn5-c5cccc(C(=O)N[C@@H](C)C(N)=O)c5)C[C@]4(C)[C@@]3(F)[C@@H](O)C[C@@]21C [Example 22, (1R,2R,3aS,3bS,10aS,10bR,11S,12aS)-7-(3-{[(1S)-2-Amino-1-methyl-2-oxoethyl]carbamoyl}phenyl)-10b-fluoro-1-{[(fluoromethyl)sulfanyl]carbonyl}-11-hydroxy-2,10a,12a-trimethyl-1,2,3,3a,3b,4,5,7,10,10a,10b,11,12,12a-tetradecahydrocyclopenta[5,6]naphtho[1,2-f]indazol-1-yl methoxyacetate]",8.72
6,"COCC(=O)O[C@]1(C(=O)SCF)[C@H](C)C[C@H]2[C@@H]3CCC4=Cc5c(cnn5-c5cccc(C(=O)N6CCC[C@@H]6C(N)=O)c5)C[C@]4(C)[C@@]3(F)[C@@H](O)C[C@@]21C [Example 47, (1R,2R,3aS,3bS, 10aS,10bR,11S,12aS)-7-(3-{[(2R)-2-carbamoyl-pyrrolidin-1-yl]carbonyl}phenyl)-10b-fluoro-1-{[(fluoromethyl)sulfanyl]carbonyl}-11-hydroxy-2,10a,12a-trimethyl-1,2,3,3a,3b,4,5,7,10, 10a,10b,11,12,12a-tetradecahydrocyclo-penta[5,6]naphtho [1,2-f]indazol-1-yl methoxyacetate]",8.12

# Further lines, results first:
row,pIC50,Structure (SMILES)
1,8.77,"CCC(=O)O[C@]1(C(=O)SCC#N)CC[C@H]2[C@@H]3CCC4=Cc5c(cnn5-c5cccc(C(=O)NCCSC)c5)C[C@]4(C)[C@H]3[C@@H](O)C[C@@]21C [Example 6, (1R,3aS,3bS,10aR,10bS,11S,12aS)-1-{[(Cyanomethyl)sulfanyl]carbonyl}-11-hydroxy-10a,12a-dimethyl-7-(3-{[2-(methylsulfanyl)ethyl]carbamoyl}phenyl)-1,2,3,3a,3b,4,5,7,10,10a,10b,11,12,12a-tetradecahydrocyclopenta[5,6]naphtho[1,2-f]indazol-1-yl propanoate]"
2,8.48,"CCC(=O)O[C@]1(C(=O)SCC#N)CC[C@H]2[C@@H]3CCC4=Cc5c(cnn5-c5cccc(C(=O)N6CCC[C@@H]6C(N)=O)c5)C[C@]4(C)[C@@]3(F)[C@@H](O)C[C@@]21C [Example 60, (1R,3aS,3bS,10aS, 10bR,11S,12aS)-7-(3-{[(2R)-2-carbamoyl-pyrrolidin-1-yl]carbonyl}phenyl)-1-{[(cyanomethyl)sulfanyl]carbonyl}-10b-fluoro-11-hydroxy-10a,12a-dimethyl-1,2,3,3a, 3b,4,5,7,10,- 10a,10b,11,12,12a-tetradecahydro-cyclopenta[5,6]naphtho [1,2-f]indazol-1-yl propanoate]"
3,8.55,"COCC(=O)O[C@]1(C(=O)SCC#N)CC[C@H]2[C@@H]3CCC4=Cc5c(cnn5-c5cccc(C(=O)NCC(N)=O)c5)C[C@]4(C)[C@H]3[C@@H](O)C[C@@]21C [Example 51, (1R,3aS,3bS,10aR, 10bS,11S,12aS)-7-{3-[(2-amino-2-oxoethyl)carbamoyl]phenyl}-1-{[(cyanomethyl)sulfanyl]carbonyl}-11-hydroxy-10a,12a-dimethyl-1,2,3,3a,3b,4,5,7,10, 10a,10b,11,12,12a-tetradecahydrocyclo-penta[5,6]naphtho [1,2-f]indazol-1-yl methoxyacetate]"
4,9.04,"COCCNC(=O)c1cccc(-n2ncc3c2C=C2CC[C@@H]4[C@H]([C@@H](O)C[C@@]5(C)[C@H]4CC[C@]5(OC(=O)C4CC4)C(=O)SCC#N)[C@@]2(C)C3)c1 [Example 4, (1R,3aS,3bS,10aR,10bS,11S,12aS)-1-{[(Cyanomethyl)sulfanyl]carbonyl}-11-hydroxy-7-{3-[(2-methoxyethyl)carbamoyl]phenyl}-10a,12a-dimethyl-1,2,3,3a,3b,4,5,7,10,10a,10b,11,12,12a-tetradecahydrocyclopenta[5,6]naphtho[1,2-f]indazol-1-yl cyclopropanecarboxylate]"
5,8.07,"COCC(=O)O[C@]1(C(=O)SC)CC[C@H]2[C@@H]3CCC4=Cc5c(cnn5-c5cccc(C(=O)N6CCC[C@@H]6C(N)=O)c5)C[C@]4(C)[C@@]3(F)[C@@H](O)C[C@@]21C [Example 56, (1R,3aS,3bS,10aS,10bR,11S,12aS)-7-(3-{[(2R)-2-carbamoylpyrrolidin-1-yl]carbonyl}phenyl)-10b-fluoro-11-hydroxy-10a,12a-dimethyl-1-[(methylsulfanyl)carbonyl]-1,2,3,3a,3b,4,5,7,10,10a,10b,11,12,12a-tetradecahydrocyclopenta[5,6]naphtho[1,2-f]indazol-1-yl methoxyacetate]"
6,8.22,"CCC(=O)O[C@]1(C(=O)SCC#N)CC[C@H]2[C@@H]3CCC4=Cc5c(cnn5-c5cccc(C(=O)N6CCC[C@@H]6C(N)=O)c5)C[C@]4(C)[C@H]3[C@@H](O)C[C@@]21C [Example 14, (1R,3aS,3bS,10aR,10bS,11S,12aS)-7-(3-{[(2R)-2-Carbamoylpyrrolidin-1-yl]carbonyl}phenyl)-1-{[(cyanomethyl)sulfanyl]carbonyl}-11-hydroxy-10a,12a-dimethyl-1,2,3,3a,3b,4,5,7,10,10a,10b,11,12,12a-tetradecahydrocyclopenta[5,6]naphtho[1,2-f]indazol-1-yl propanoate]"
